In patent publication US20240207422A1, “NERVE TARGETING PEPTIDE CONJUGATES AND METHODS OF USE” (Alume Biosciences, Inc., priority 2022, published 2024):

What follows are substances tested on human nerve extract (assay: Phage display selection on plates coated with human nerve extract (Plated Nerve2), NextGen sequence counts). Conditions: unique sequence count (relative enrichment); Plated Nerve2 only.
Assay type: binding
Protocol: Several m13 phage libraries were constructed expressing randomized variants of a parent peptide (QVPWEEPYYVVKKS-SGGL; SEQ ID NO: 576). In particular, the first 14 amino acids of the parent peptide were randomized using degenerate oligonucleotide synthesis to obtain a diverse set of peptides with a mutation rate of about 50% per residue.
To accomplish this, synthesis was carried out by the XXK codon design approach, where X is any base and K is G or T. To bias synthesis towards the parent sequence, synthesis was carried out at each X position with a mixture of about 70%-85% of the parent nucleotide and 15-30% of the remaining 3 nucleotides. The resulting molecules were inserted into fADL-1e (Antibody Design Laboratories), which is a type 3 phage display vector having a cloning site on the N-terminal side of the full-length gene III protein. The fusion proteins are directed to the periplasm by the PelB leader peptide, which is inserted in the vector […].
Collectively, the phage display libraries used in the screens comprised about 600 million peptides, with sequencing analysis confirming a mutation rate of about 50% per residue.
Phage libraries were independently processed, as follows, with five biological samples: two independent samples of excised human nerve tissue, one sample of a human nerve extract, and two independent samples of human muscle tissue, as follows:
Human Nerve Extracts: Phage libraries were incubated for up to 24 hours at 4° C. in 96 well plates that had been coated with a human nerve extract. Plates were then washed with PBS and phage were eluted using 0.2M glycine pH 2.0. Phage supernatants where then neutralized with Tris pH 9.0 prior to plating on TG1 bacteria and LB agar plates. Colonies were counted to determine titer followed by DNA preparation of pools of phage and NextGen sequencing. After rounds of selection, phage were pooled and amplified for iterative selection. Phage that eluted by 0.2M glycine pH 2.0 (the nerve binders) at each round were sequenced. NextGen sequencing of pools after 2, 3 and 4 rounds of selection were used to isolate candidate sequences that were further analyzed using bioinformatics.
NextGen sequencing of pools after 2, 3 and 4 rounds of selection were used to isolate candidate sequences from each of the five samples. These five data sets were then analyzed as described in the next section.
Peptide and vector sequences were translated starting at the first start codon in the nucleotide sequence. […] Trimmed peptides with identical sequences were combined and quantified according to their frequency (count).
Following processing, an R script was written to merge the unique peptide sequences (with counts 6 or greater) from the 5 different data sets to analyze the overlap between nerve and muscle binding activity.
For the single Nerve2, Nerve3, and Plated Nerve2 (pn2) subsets, the number of counts for each group was set at a threshold giving rise to at least 100 peptides. […] As highlighted in yellow in FIG. 1B, the representative group also included 6 unique peptides overlapping between nerve2 and nerve3, 200 unique peptides overlapping between nerve2 and plated nerve2 (at least 60 counts), 4 unique peptides overlapping between nerve3 and plated nerve2. Finally, as highlighted in green in FIG. 1B, the representative group also included […] common to the nerve2, nerve3, and plated nerve2 sets.

| Substance | Count |
| --- | --- |
| 455 (QFPLAEPYYHLTES) [compound 455] | 77 |
| 456 (HFDWEEPYYDASKA) [compound 456] | 73 |
| 457 (SYEWEDPYYDLKYS) [compound 457] | 73 |
| 458 (NVTGAEYYYRMNNY) [compound 458] | 67 |
| 459 (HVSCEVPCYGALAS) [compound 459] | 66 |
| 460 (HDASEGAYYVERNS) [compound 460] | 65 |
| 461 (QFGWEEPYYVLHTV) [compound 461] | 65 |
| 462 (HLSREGTYYAVKQP) [compound 462] | 64 |
| 463 (QLPLYDPYYTVRTS) [compound 463] | 63 |
| 464 (ELPYEEPGTFVEKA) [compound 464] | 62 |
| 465 (QFPWEEPYYVFTNS) [compound 465] | 62 |
| 466 (QIPGGERSYVLENS) [compound 466] | 62 |
| 467 (QITSDKPYYVVKNS) [compound 467] | 60 |
| 468 (YDPSGEPYYRVNNH) [compound 468] | 59 |
| 469 (QVPRPASSYIGKTS) [compound 469] | 58 |
| 470 (QIPLEGPTYVTNPS) [compound 470] | 57 |
| 471 (AIPSGAPYYKVNKY) [compound 471] | 56 |
| 472 (EFRSEQPYYFVNKY) [compound 472] | 55 |
| 473 (QIRWDETYYDIQKT) [compound 473] | 55 |
| 474 (QLALEQQSYDAKMS) [compound 474] | 55 |
| 475 (ALPWEHPWCVSKNC) [compound 475] | 54 |
| 476 (HVPVLEPYDLVKKS) [compound 476] | 54 |
| 477 (QIRSTEPYYVFKKT) [compound 477] | 54 |
| 478 (QSPGTNPQNVLIKS) [compound 478] | 54 |
| 479 (QITSVDPSSLAYRS) [compound 479] | 53 |
| 480 (QMPSGAPYDATLNS) [compound 480] | 53 |

| Substance | Count |
| --- | --- |
| 481 (QNPWDEPSYVVKNV) [compound 481] | 53 |
| 482 (QSPFDETAYGLTHS) [compound 482] | 53 |
| 483 (QVLFAKSYYSVKDS) [compound 483] | 53 |
| 484 (RFPADEEHYVGKLS) [compound 484] | 53 |
| 485 (YVPYEEQKYVVTKS) [compound 485] | 53 |
| 486 (HSQGQTTEYVGKQS) [compound 486] | 52 |
| 487 (DFQSEETRNLAKMP) [compound 487] | 51 |
| 488 (DVPWPAPYYAVSKY) [compound 488] | 51 |
| 489 (QFPGEESHYVVRNS) [compound 489] | 51 |
| 490 (QFQWETPSHVINDS) [compound 490] | 51 |
| 491 (QTPRQTLYYSVKAY) [compound 491] | 51 |
| 492 (HVAYQEPFVYQKTS) [compound 492] | 50 |
| 493 (QISRGDTYYVMNKS) [compound 493] | 50 |
| 494 (HIPGEEPSDGVRSY) [compound 494] | 49 |
| 495 (HLSVAEPYYAVRNS) [compound 495] | 49 |
| 496 (QLQWQKSNWVGKIT) [compound 496] | 49 |
| 497 (EIPWEGTYRLVKHS) [compound 497] | 48 |
| 498 (HVPQKEPYYVVKTF) [compound 498] | 48 |
| 499 (QFPLFTTFYNVEES) [compound 499] | 47 |
| 500 (QFPWETSYYIVKNS) [compound 500] | 47 |
| 501 (QLAGGDPYVLPKLS) [compound 501] | 47 |
| 502 (DVASGEQSYIVVKY) [compound 502] | 46 |
| 503 (HVWLEDTISAEKKS) [compound 503] | 46 |
| 504 (QVQWDGASSIVQKT) [compound 504] | 46 |
| 505 (HFRGPEPYKFVENP) [compound 505] | 45 |
| 506 (HVPWEGPEYIVTQS) [compound 506] | 45 |

| Substance | Count |
| --- | --- |
| 507 (QFPRHDPNEVVHKS) [compound 507] | 45 |
| 508 (QIPSEEPNYILKSS) [compound 508] | 45 |
| 509 (QRPGDEPSYFVKNS) [compound 509] | 45 |
| 510 (ELTMEQPSYVGNVS) [compound 510] | 44 |
| 511 (QLPWHEAFFGVNNG) [compound 511] | 44 |
| 512 (QVLEKEPSSNVHKS) [compound 512] | 44 |
| 513 (HVPSYAPNYEIKES) [compound 513] | 43 |
| 514 (QHLGEEPSYSGEYA) [compound 514] | 43 |
| 515 (SISSKDPYALVKYS) [compound 515] | 43 |
| 516 (QFPWDEPNYVVKNF) [compound 516] | 42 |
| 517 (QLPFNEPYYSQQVS) [compound 517] | 42 |
| 518 (HLSMEAPYYGVKEY) [compound 518] | 41 |
| 519 (HVLGEQPYSVVKTS) [compound 519] | 41 |
| 520 (HVSWEEPRYIVKDS) [compound 520] | 41 |
| 521 (QLPWEGPYYIVKKS) [compound 521] | 41 |
| 522 (QTPAEKPYYVVKKY) [compound 522] | 41 |
| 523 (HVPSQEWYYDLHKS) [compound 523] | 40 |
| 524 (QFPWHKQFYVGKSS) [compound 524] | 40 |
| 525 (DFQIVGPSYVGKNS) [compound 525] | 39 |
| 526 (HLPSEKPWYDLDGS) [compound 526] | 39 |
| 527 (HVSWSTSKYVVNHS) [compound 527] | 39 |
| 528 (QISWEDPDYGVRKS) [compound 528] | 39 |
| 529 (QVPCEQQSCVVKNS) [compound 529] | 39 |
| 530 (LFTGQQSYYEVQES) [compound 530] | 38 |
| 531 (LVSPTGPIYVMNKS) [compound 531] | 38 |
| 532 (QFASEEPYHVMKKP) [compound 532] | 38 |

| Substance | Count |
| --- | --- |
| 533 (QFSRADSQYLVKNS) [compound 533] | 38 |
| 534 (QIPLQDPYHVVEKS) [compound 534] | 38 |
| 535 (QLLWGESYSIVKNY) [compound 535] | 38 |
| 536 (QLPSQTQNYYDTNA) [compound 536] | 38 |
| 537 (QLRSEDTYYTMQSY) [compound 537] | 38 |
| 538 (SVAGQQHYYVSTKP) [compound 538] | 38 |
| 539 (HLPCKKSFYACKKH) [compound 539] | 37 |
| 540 (HVRFAEPYYAGKTS) [compound 540] | 37 |
| 541 (LLTGAEPYYLGKRS) [compound 541] | 37 |
| 542 (QLPGAEAQNVVKYS) [compound 542] | 37 |
| 543 (QLRFDEHHSVVTHS) [compound 543] | 37 |
| 544 (QYPWEQRYYFERKS) [compound 544] | 37 |
| 545 (RVTWEGPYNSVKKS) [compound 545] | 37 |
| 546 (DVALGESHYNVKKY) [compound 546] | 36 |
| 547 (DVPNDLPSYLVKNS) [compound 547] | 36 |
| 548 (EFPYQESEYIVKQS) [compound 548] | 36 |
| 549 (GLPSKEPYYVVKPA) [compound 549] | 36 |
| 550 (HVPWDDQYYVWRTN) [compound 550] | 36 |
| 551 (HVQWDQTSYVVKNS) [compound 551] | 36 |
| 552 (HVTSDDSYYAVKNP) [compound 552] | 36 |
| 553 (QDPFGDLYYVTKMS) [compound 553] | 36 |
| 554 (QFPYDEPYNVVKKS) [compound 554] | 36 |
| 555 (QHPWKEQYYMATKP) [compound 555] | 36 |
| 556 (QLNSEEPYYHFKNY) [compound 556] | 36 |
| 557 (QLPTNDPYYVLMES) [compound 557] | 36 |
